Measurements: patent publication US5498632A, “Esters of acyl carnitines with long-chain aliphatic alcohols and pharmaceutical compositions containing same having antibacterial activity” (Sigma-Tau Industrie Farmaceutiche Riunite S.p.A., priority 1992, dated 1996)

Columns and labels:
[1] = tested on: murine lymphoid organs (spleen and thymus); experiment: Test 2: weight of murine lymphoid organs after repeated oral administration; format: in vivo, mouse (male B6 D2 F1); conditions: 100 mg/kg/day for 7 consecutive days
Procedure: Evaluation of the effect of repeated oral administrations of ST 722 on the weight of murine lymphoid organs (spleen and thymus).
Male B6 D2 F1 mice (C. River) aged 7 weeks (7-8 animals each group) were orally treated with the substance ST 722 at the dose of 100 mg/kg/day for 7 consecutive days. Twenty-four hours after the last administration, the animals were sacrificed, the organs removed and weighed.

[2] = tested on: antibody-producer B lymphocytes (spleen of SRBC immunized mice); experiment: Test 1: primary antibody production (Jerne test) in spleen of SRBC immunized mice; format: in vivo, mouse (male B6 D2 F1)
Procedure: Evaluation of the "in vitro-ex vivo" effect of repeated oral administrations of ST 722 on the primary antibody production (Jerne test) in the spleen of SRBC (Sheep Red Blood Cells) immunized mice.
Male B6 D2 F1 mice (C. River) aged 8 weeks (6 animals each group) were utilized.
The substance (ST 722) was administered per os at the dose of 100 mg/kg/day from day -2 through day +2 (immunization at day 0).
The animals were immunized by intraperitoneal route with a concentration of 1.0×10^8 cells/mouse in 0.2 ml of sterile saline.
Five days later, spleens to be submitted to teasing process were removed from the animals sacrificed by cervical dislocation.
After standardization at 1.0×10^7 cells/ml, the splenocytes (0.1 ml) were mixed with warm agar-Hank's (2 ml) and 10% SRBC in PBS (0.2 ml) and seeded in Petri dishes (samples tested in triplicates) and incubated at 37° C. for 60 min.
After addition of complement (2 ml of guinea pig serum diluted 1:10 in Tris buffer), samples were further incubated at 37° C. for 30 min.
To block the haemolysis reaction, the Petri dishes were cooled at 4° C. and the haemolysis plaques were counted.
The antibody response to SRBC is expressed as number of plaque forming cells (PFC) per 1.0×10^6 splenocytes as well as per spleen.

[3] = tested on: Pseudomonas aeruginosa (10 E); experiment: MIC in broth, Gram- strains; format: cell-based; conditions: 18 h, read-out: Minimal Inhibitory Concentration (MIC)
Summary of the method: (§1)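 Minimal inhibitory concentrations come from a standard microdilution test in Mueller-Hinton broth. Cells are seeded at 5.0×10^4 CFU/ml final and exposed for 18 h at 37 °C.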

[4] = tested on: Klebsiella pneumoniae (7823); experiment: MIC in broth, Gram- strains; format: cell-based; conditions: 18 h, read-out: Minimal Inhibitory Concentration (MIC)
Summary of the method: as §1

[5] = tested on: Enterobacter aerogenes (UM); experiment: MIC in broth, Gram- strains; format: cell-based; conditions: Klebsiella aerogenes, 18 h, read-out: Minimal Inhibitory Concentration (MIC)
Summary of the method: as §1

Escherichia coli (76 F) = experiment: MIC in broth, Gram- strains; format: cell-based; conditions: 18 h, E. coli (76 F), read-out: Minimal Inhibitory Concentration (MIC)
Summary of the method: as §1

Proteus morganii (D.S.) = experiment: MIC in broth, Gram- strains; format: cell-based; conditions: Morganella morganii, 18 h, read-out: Minimal Inhibitory Concentration (MIC)
Summary of the method: as §1

Escherichia coli (92 F) = experiment: MIC in broth, Gram- strains; format: cell-based; conditions: 18 h, E. coli (92 F), read-out: Minimal Inhibitory Concentration (MIC)
Summary of the method: as §1

[6] = tested on: Serratia marcescens (A/1); experiment: MIC in broth, Gram- strains; format: cell-based; conditions: 18 h, read-out: Minimal Inhibitory Concentration (MIC)
Summary of the method: as §1

[7] = tested on: Bacillus subtilis (ATCC 6051); experiment: MIC in broth, Gram+ strains; format: cell-based; conditions: ATCC6051, B. subtilis (ATCC 6051), Mueller-Hinton broth, 37° C., 18 hours, read-out: Minimal Inhibitory Concentration (MIC)
Summary of the method: (§2)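 Minimal inhibitory concentrations come from serial two-fold dilution in Mueller-Hinton broth against 5.0×10^4 CFU/ml final inoculum, incubated humidified for 18 hours at 37° C.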

[8] = tested on: Staphylococcus aureus (306 MR); experiment: MIC in broth, Gram+ strains; format: cell-based; conditions: S. aureus (306 MR), Mueller-Hinton broth, 37° C., 18 hours, read-out: Minimal Inhibitory Concentration (MIC)
Summary of the method: as §2

[9] = tested on: Streptococcus faecalis (R 2); experiment: MIC in broth, Gram+ strains; format: cell-based; conditions: Enterococcus faecalis; S. faecalis (R 2), Mueller-Hinton broth, 37° C., 18 hours; read-out: Minimal Inhibitory Concentration (MIC)
Summary of the method: as §2

[10] = tested on: Staphylococcus aureus (303); experiment: MIC in broth, Gram+ strains; format: cell-based; conditions: S. aureus (303), Mueller-Hinton broth, 37° C., 18 hours, read-out: Minimal Inhibitory Concentration (MIC)
Summary of the method: as §2

[11] = tested on: Streptococcus faecalis (518); experiment: MIC in broth, Gram+ strains; format: cell-based; conditions: Enterococcus faecalis; S. faecalis (518), Mueller-Hinton broth, 37° C., 18 hours; read-out: Minimal Inhibitory Concentration (MIC)
Summary of the method: as §2

[12] = tested on: Streptococcus faecalis (501); experiment: MIC in broth, Gram+ strains; format: cell-based; conditions: Enterococcus faecalis; S. faecalis (501), Mueller-Hinton broth, 37° C., 18 hours; read-out: Minimal Inhibitory Concentration (MIC)
Summary of the method: as §2

[13] = tested on: Staphylococcus aureus (LC1); experiment: MIC in broth, Gram+ strains; format: cell-based; conditions: S. aureus (LC1), Mueller-Hinton broth, 37° C., 18 hours, read-out: Minimal Inhibitory Concentration (MIC)
Summary of the method: as §2

[14] = tested on: Streptococcus faecalis (505); experiment: MIC in broth, Gram+ strains; format: cell-based; conditions: Enterococcus faecalis; S. faecalis (505), Mueller-Hinton broth, 37° C., 18 hours; read-out: Minimal Inhibitory Concentration (MIC)
Summary of the method: as §2

[15] = tested on: Streptococcus faecalis (UM); experiment: MIC in broth, Gram+ strains; format: cell-based; conditions: Enterococcus faecalis; S. faecalis (UM), Mueller-Hinton broth, 37° C., 18 hours; read-out: Minimal Inhibitory Concentration (MIC)
Summary of the method: as §2

[16] = 100 mg/kg/day per os, day -2 through day +2, mean ± S.E.

CCCCCCCCCCCOC(=O)CC(C[N+](C)(C)C)OC(=O)CC(C)C [ST 722, Isovaleryl-L-Carnitine Undecyl Ester Chloride]
Body weight [1]: 22.74 ± 0.37 g
Spleen weight [1]: 77.88 ± 2.38 mg
Thymus weight [1]: 52.88 ± 3.20 mg
immunotoxic effect on the parameters examined [1]: did not provoke any immunotoxic effect
toxic effect on weight of the lymphoid organs (spleen and thymus) ([2]; 100 mg/kg/day per os): did not show values relating to a toxic effect
Body weight [2, 16]: 25.12 g
PFC/10^6 cells [2, 16]: 261 ± 34 PFC/10^6 cells
PFC/spleen [2, 16]: 44440 PFC/spleen
Spleen weight [2, 16]: 94.33 mg
Thymus weight [2, 16]: 59.50 mg
modification in PFC number after the antigenic challenge ([2]; repeated (5 consecutive days) oral administrations): did not cause a statistically significant modification in PFC number
MIC [3]: 50 µg/mL
MIC [4]: 12.5 µg/mL
MIC [5]: 25 µg/mL
MIC (Escherichia coli (76 F)): 25 µg/mL
MIC (Proteus morganii (D.S.)): 100 µg/mL
MIC (Escherichia coli (92 F)): 25 µg/mL
MIC [6]: 50 µg/mL
MIC [7]: 3.12 µg/mL
MIC [8]: 6.25 µg/mL
MIC [9]: 3.12 µg/mL
MIC [10]: 6.25 µg/mL
MIC [11]: 3.12 µg/mL
MIC [12]: 3.12 µg/mL
MIC [13]: 1.56 µg/mL
MIC [14]: 3.12 µg/mL
MIC [15]: 1.56 µg/mL
